Assay results reported in EP0719267B1, “SECOND MESSENGER CELL SIGNALING INHIBITORS” (CELL THERAPEUTICS, INC., priority 1993, dated 1994).
pIC50: −log10 of the molar value.

Tests used:
mast cell degranulation = assay: Serotonin release assay for inhibition of mast cell degranulation; type: cell-based; conditions: Mast cell; Concentration 50 µM
Description: This assay provides an in vitro model for an allergy and asthma therapeutic product. […]

[1] = system: murine thymocyte proliferation; assay: Thymocyte proliferation stimulated by Con A and IL-1α; type: cell-based; conditions: Mus musculus, 2 h, added two hours prior to Con A and IL-1α
Protocol: In a first part of this example, compounds nos. 30, 33, 28 and 27 (see above for chemical names and structures) show effective inhibition of murine thymocyte proliferation stimulated by Con A and interleukin 1 alpha (IL-1α). Compounds nos. 30, 33, 28 and 27 were added to cell cultures two hours prior to activation with Con A and IL-1α in a thymocyte co-stimulation procedure akin to that discussed in example 21. […] IC50 values determined for each inventive compound tested are as follow: compound no. […] Background counts in the assay were less than 200 cpm.

[2] = system: transformed cells (Ras 3T3) and normal 3T3 cells; assay: Cytotoxicity for transformed versus non-transformed cells; type: cell-based; conditions: 1, 10 and 100 µM
Protocol: This example compares cytotoxicity results for inventive compound no. 27 for transformed cells and non-transformed cells. In transformed cells (Ras 3T3) and in normal 3T3 cells, cytotoxicity of compound no. 27 at concentrations of 1, 10 and 100 µM was determined. Figure 18 reports results obtained in this assay. At each of the above concentrations, compound no.

[3] = system: mixed lymphocyte reaction assay culture; assay: Cell percent viability in mixed lymphocyte reaction culture; type: cell-based; conditions: 100 µM, six days of cell culture
Protocol: Cell percent viability in mixed lymphocyte reaction assay culture was determined after six days of cell culture. […] Control cells unexposed to drugs are generally 78 to 85% viable under these culture conditions. In this assay, all inventive compounds were present at 100 µM concentrations, generally well above corresponding IC50 values in this assay (see fig. 2D). […] Compounds nos.

[4] = system: murine lymph node cell proliferation; assay: Lymph node cell proliferation stimulated by antigen; type: cell-based; conditions: Mus musculus
Description: This example illustrates activity of representative inventive compounds nos. 27, 49, 50, 45, 43 or 41 (above) in assays detecting activity in response to cell stimulus. One assay, murine lymph node cell proliferation (stimulated by anitgen) was used to determine inhibitive activity of compound no. 27 on proliferation of the lymph node cells. This in vitro assay is an immune suppressive/autoimmune treatment predictive assay emphasizing cellular or T cell immune response. The assay used murine T cells that proliferate in vitro in response to a soluble protein antigen, used to prime the T cells in vivo. Compound was added to the cells at doses indicated in figures 7 and 8 (showing assay results) two hours prior to activation with […]. Compound no. 27 inhibited T cell proliferation in a dose-response manner. IC50 values for compound no.

[5] = system: murine splenocyte proliferation; assay: Splenocyte (B cell) proliferation stimulated by anti-mu/anti-IgM and IL-4; type: cell-based; conditions: Mus musculus, anti-mu and IL-4 12.5 ng/ml
Protocol: This example illustrates inhibitive effects of compounds nos. 27 and 28 on murine splenocyte proliferation stimulated by anti-mu ([…]) and interleukin-4 (IL-4, 12.5 ng/ml). This in vitro assay, described above, is indicative of immune-suppressive/autoimmune treatment assay emphasizing humoral or B cell immune response. The inventive compound was added to the cells at the doses indicated two hours prior to activation with anti-mu and IL-4. Both compounds nos. 27 and 28 inhibited splenocyte proliferation in a dose-response manner. IC50 values for compounds nos. Background counts were less than 200 cpm.
In figure 57, results shown illustrate that inventive compound no. 45 inhibits B cell proliferation. Murine splenocytes were stimulated with anti-IgM antibodies (10 µg/ml) and murine IL-4 (12.5 ng/ml). Cells were pulsed with ^3HTdR at 44 hours, harvested 4 hours later, and the incorporation of ^3H-TdR was determined by liquid scintillation.

[6] = system: murine thymocyte proliferation; assay: Thymocyte proliferation co-stimulated by ConA and IL-2 (tritiated thymidine); type: cell-based, Balb/C mice; conditions: ConA and IL-2 co-stimulation
Protocol: (§1) ConA, used to activate CD3, induces T-cell proliferation and differentiation. Thymuses, obtained from normal, female Balb/C mice, were dissociated and plated into 96-well plates at a density of 2 x 10^5 cells/well. ConA (0.25 mg/ml) and IL-2 (15 U/ml) were added to the wells. The cells were incubated for 4 days at 37°C. On day 4, the cells were pulsed with tritiated thymidine and incubated for an additional 4 hours. The amount of tritiated thymidine dye incorporated by the harvested cells was determined in a liquid scintillation counter. Drug doses (shown in figs. 1A and 1B) were added two hours prior to ConA and IL-2 activation.
as §1, with “Thymuses,” for “ConA, used to activate CD3, induces T-cell proliferation and differentiation. Thymuses,”, “37 °C.” for “37°C.”, “Doses” for “Drug doses”, “26A, 26B” for “1A”, “26C)” for “1B)”
In another in vitro protocol, thymocyte proliferation was induced by sub-mitogenic doses of Con A (0.25 µg/ml) and IL-2 (20 ng/ml). Cells were stimulated for 96 hours, prior to addition of ^3H-TdR for 4 hours. The cells were harvested and incorporation of ^3H-TdR was determined.
45 on co-stimulated thymocyte proliferation. In an assay procedure, murine thymocytes were stimulated with ConA and IL-2 with 1 µM compound no. 45 added either 1 hour prior to IL-2 (-1), simultaneous with IL-2 (0) or at various times following IL-2 addition (1-92 hour). At 92 hours the thymocytes were pulsed with ^3H-TdR, harvested and counted by scintillation 4 hours later.

[7] = system: proliferative PMBC response to allogeneic stimulation; assay: Two-way mixed lymphocyte reaction; type: cell-based
Description: This example illustrates therapeutic potential for various autoimmune and inflammatory diseases of the inventive compounds by comparing potency (inhibitive activity) with cytotoxicity data obtained using the following indicative assay procedures. In a mixed lymphocyte reaction assay of compounds nos. […] Compounds nos. […] 2A and 2B. Both compounds nos. […] 2C.
Compound no. […] Compound no.

Cn1cnc2c1c(=O)n(CCCCCCCC(O)CNCc1ccccc1)c(=O)n2C (stereo not shown) [compound no. 27, 1-(8-hydroxy-9-(N-benzyl)aminononyl)-3,7-dimethylxanthine]
inhibition at 50 µM (mast cell degranulation): 29%
pIC50 [1]: > 4.90
differential cytotoxicity [2]: more cytotoxic for the cancer cells than normal cells
cytotoxicity (percent viability) [3]: little or no cytotoxicity
pIC50 ([4]; first experiment (fig. 7)): 4.64
pIC50 ([4]; second experiment (fig. 8)): 4.72
pIC50 [5]: 5.48
inhibition of thymocyte proliferation [6]: the most potent immune-suppressive effects
pIC50 ([7]; Lymphocyte, figs. 2A-2C): 4.40
immune suppression activity ([7]; fig. 2D): did not exhibit significant suppressive activity
